Laboratory results from patent US20180280528A1, “ANTIFOLATE CONJUGATES FOR TREATING INFLAMMATION” (ENDOCYTE, INC., priority 2015, published 2018).
Where two headings read alike, the source gives them in different places.

Tests used:
[1] = Plasma protein binding by ultrafiltration, dog plasma; assay type: in vitro ADME; settings: 500 nM
Protocol: EC2319 and EC1669 plasma protein binding was evaluated by ultra filtration using VWR 30K MWCO modified PES filters. 250 μL of 500 nM EC2319 or EC1669 in K3EDTA plasma incubated at 37° C. was added to the upper filter vessel. 50 μL was immediately removed as the donor plasma sample and aliquoted into a clean 1.2 mL plate. […] An aliquot of […] plasma ultrafiltrate was then added to the 1.2 mL plate as the receiver sample. To each plasma sample, 50 μL of plasma ultrafiltrate was added, and each ultrafiltrate sample received 50 μL of plasma to mitigate matrix effects. N-Maleoyl-β-alanine, mannitol, and acetic acid were added at the end of each experiment to stabilize the samples prior to LC-MS/MS analysis.

[2] = Incubation with rat TG macrophage cell lysates; assay type: in vitro ADME; settings: rat TG macrophage lysate, pH 4.5, 37° C., 1 hour
Protocol: Female Lewis rats approximately 200 grams in size (Harlan Laboratories, Indianapolis, Ind.) were injected intraperitoneally at 20 mL/kg of body weight with sterile 7.5% thioglycollate solution (BD Biosciences) supplemented with 12.5% BSA aged for more than 6 months in the presence of 0.5 M D-glucose at 37° C. in the dark according to the procedure of Li et al. (Journal of Immunological Methods (1997) 201:183-188). Three days later these rats were humanely euthanized with CO2 asphyxiation and total peritoneal cells isolated by intraperitoneal lavage with 50 mL of sterile phosphate buffered saline (PBS) containing 0.5 mM EDTA. Red blood cells were lysed with a 5 minute incubation with 1×RBC lysis buffer (BioLegend, San Diego, Calif.). […] Cells were incubated for 2 hrs in 5% CO2. After two hours, floating cells/debris was removed and the adherent cells were washed once with drug free media. Normal growth media (10% FCS RPMI1640) was added to each plate of cells and then incubated for 1, 2 and 3 days in the tissue culture incubator. The adherent cells were harvested using an 8 minute trypsin digest to loosen the cells and then gently scraped off the plate. […] Live cells were counted and then washed once with cold PBS. […]

[3] = system: mouse RAW264.7 macrophage cells; experiment: Cell viability (XTT) assay, RAW264.7; assay type: cell-based
Protocol: (§1) All cells were grown in a folate-free RPMI1640 medium (Gibco BRL) (FFRPMI) containing 10% heat-inactivated fetal calf serum (HIFCS) and antibiotics, and maintained under a 5% CO2 atmosphere using standard cell culture techniques.
(§2) After a 2 h exposure, the drug-containing media were replaced and the cells were allowed to incubate further for 72 h. The cell viability was assessed by adding XTT (2,3-bis(2-methoxy-4-nitro-5-sulfo-phenyl)-2H-tetrazolium-5-carboxanilide) to the culture medium for 3 h following the manufacturer's instructions. All results were expressed as % absorbance (minus background) relative to the untreated control cells. See results in FIG. 2A and FIG. 2B.
(§3) Importantly, the observed anti-proliferative effect was 100% competable in the presence of excess FA, indicating a FR-specific mode of action.

[4] = 500 nM, 37° C., two hours
Protocol: Blood samples were maintained at 37° C. for 30 minutes prior to spiking the analyte into 2.5 mL blood at 500 nM. At time 0 and every 30 minutes for two hours, blood samples were removed and centrifuged at 2000×g for 10 minutes to generate plasma. 50 μL aliquots of generated plasma were then transferred to a clean 1.2 mL plate containing N-Maleoyl-β-alanine, mannitol, and acetic acid. Samples were stored at −80° C. until being thawed for LC-MS/MS analysis.

human THP-1-FRβ cells = experiment: Cell viability (XTT) assay, THP-1-FRβ; assay type: cell-based
Protocol: as §1, §2, §3

[5] = target: T1, human folate receptor (FR)-α (Homo sapiens, UniProt P15328); experiment: Relative affinity assay (displacement of 3H-folic acid on KB cells); assay type: binding; settings: 100 nM 3H-folic acid, 1 h at 37° C., normalized against 1 for FA
T1 construct: endogenous in cells; host or cells: KB cells (human HeLa carcinoma contaminant)
T1 sequence (P15328 25-234): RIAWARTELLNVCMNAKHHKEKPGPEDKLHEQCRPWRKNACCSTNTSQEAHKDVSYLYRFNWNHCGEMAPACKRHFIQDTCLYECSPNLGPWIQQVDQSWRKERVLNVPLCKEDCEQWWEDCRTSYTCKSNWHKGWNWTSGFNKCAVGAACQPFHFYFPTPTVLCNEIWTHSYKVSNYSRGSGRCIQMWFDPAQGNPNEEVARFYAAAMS
Protocol: Cell lines utilized to evaluate EC2319 in in-vitro studies were as follows: KB human HeLa carcinoma contaminant expressing the human folate receptor (FR)-α, RAW264.7 mouse macrophage-derived tumor cells expressing a murine FR, THP-1-FRβ human monocytic leukemia engineered to express the human FR-β. All cells were grown in a folate-free RPMI1640 medium (Gibco BRL) (FFRPMI) containing 10% heat-inactivated fetal calf serum (HIFCS) and antibiotics, and maintained under a 5% CO2 atmosphere using standard cell culture techniques.
EC2319 FR-binding affinity was determined in a relative affinity assay using KB cells as the source of FR. Briefly, KB cells (1×10^5 cells/well) were plated in 24-well plates at 18 to 24 h before use. The cells were then incubated for 1 h at 37° C. with 100 nM of ^3H-folic acid (Moravek Inc.) plus a series of 3.16-fold dilutions of EC2319 or FA at 0.01-31.6 μM in triplicates. At the end of incubation, the cells were washed 3 times with a phosphate-buffered saline (PBS, pH 7.4) and lysed for 5 min at room temperature in 0.5 mL of 0.25 N NaOH. 0.45 mL of the cell lysate was taken from each well and counted in a scintillation counter. […] See result in FIG. 1.

[6] = 2 h exposure, 72 h chase, XTT, read-out: relative IC50, inhibition of cell proliferation

Structure (SMILES)	plasma protein binding [1]	aminopterin release [2]	concentrations with cytostatic effect [3] [nM]	anti-proliferative effect competable in the presence of excess FA ([3]; 100-fold excess FA) [%]	IC50 [3, 6] [nM]	whole blood stability (percent remaining of intact conjugate, formation of EC1886) ([4]; fresh human blood)	whole blood stability (percent remaining of intact conjugate, formation of EC1886) ([4]; fresh rat blood)	concentrations with cytostatic effect (human THP-1-FRβ cells) [nM]	anti-proliferative effect competable in the presence of excess FA (human THP-1-FRβ cells; 100-fold excess FA) [%]	IC50 (human THP-1-FRβ cells; [6]) [nM]	relative affinity [5]
N=c1[nH]c(N)nc2ncc(CNc3ccc(C(=O)N[C@@H](CCC(=O)NNC(=O)OCCSSC[C@@H](NC(=O)[C@H](CCC(=O)NC[C@H](O)[C@@H](O)[C@H](O)[C@H](O)CO)NC(=O)[C@@H](CCC(=O)O)NC(=O)[C@H](CCC(=O)NC[C@H](O)[C@@H](O)[C@H](O)[C@H](O)CO)NC(=O)[C@@H](CCC(=O)O)NC(=O)[C@H](CCC(=O)NC[C@H](O)[C@@H](O)[C@H](O)[C@H](O)CO)NC(=O)CC[C@H](NC(=O)c4ccc(NCc5cnc6nc(N)[nH]c(=O)c6n5)cc4)C(=O)O)C(=O)O)C(=O)O)cc3)nc12 [EC1669, reference compound]	high plasma protein binding	greater from EC1669 than from EC2319									
COC(=O)[C@H](CSSC(C)(C)[C@H](NC(=O)[C@H](CCC(=O)NC[C@H](O)[C@@H](O)[C@H](O)[C@H](O)CO)NC(=O)[C@H](CCC(=O)O)NC(=O)[C@H](CCC(=O)NC[C@H](O)[C@@H](O)[C@H](O)[C@H](O)CO)NC(=O)[C@H](CCC(=O)O)NC(=O)[C@H](CCC(=O)NC[C@H](O)[C@@H](O)[C@H](O)[C@H](O)CO)NC(=O)CC[C@H](NC(=O)c1ccc(NCc2cnc3nc(N)[nH]c(=O)c3n2)cc1)C(=O)O)C(=O)O)NC(=O)CC[C@H](NC(=O)c1ccc(NCc2cnc3nc(N)nc(N)c3n2)cc1)C(=O)O [EC2319]	higher plasma protein binding than did EC1669	aminopterin release was observed	≥ 10	100	~2.9	superior stability profile than EC1669	superior stability profile than EC1669	≥ 100	100	~8.7	0.493
